According to ChEMBL document CHEMBL1201862, “PubChem BioAssay data set” (2004):
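Exposure lasted 48 hours, with cells grown in 96-well plates and compounds tested at five concentrations. GI50 marks 50% less growth.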 Active and inactive are the calls of the source. Rule as the data show it: active = GI50 up to about 1.1 µM and inactive = higher.

How the values were obtained:
Assay in all cases: DTP human tumour cell line panel, 48 h
[1] = tested on: SNB-75
[2] = tested on: HOP-92
[3] = tested on: BT-549
[4] = tested on: HT-29
[5] = tested on: UACC-62
[6] = tested on: HCC 2998
[7] = tested on: CAKI-1
[8] = tested on: SF-295
[9] = tested on: MDA-MB-435
[10] = tested on: Hs-578T
[11] = tested on: NCI-H460
[12] = tested on: K562
[13] = tested on: RXF 393
[14] = tested on: HOP-62
[15] = tested on: A549
[16] = tested on: CCRF-CEM
[17] = tested on: 786-0
[18] = tested on: M14
[19] = tested on: MDA-MB-231
[20] = tested on: SR

With `O=C1C=C(Br)c2c(-c3ccccc3)oc3cccc1c23` the GI50 [1] was 5.45 µM (inactive), the GI50 [2] was 25.4 µM (inactive) and the GI50 [3] was > 100 µM (inactive). For the same molecule, the GI50 [4] was > 63.4 µM (inactive), the GI50 [5] was 38.1 µM (inactive) and the GI50 [6] was 99.8 µM (inactive). For the same molecule, the GI50 [7] was > 76.9 µM (inactive), the GI50 [8] was 22.9 µM (inactive) and the GI50 [9] was 17.1 µM (inactive). For the same molecule, the GI50 [10] was 29.3 µM (inactive), the GI50 [11] was 37.8 µM (inactive) and the GI50 [12] was > 50.9 µM (inactive). For the same molecule, the GI50 [13] was 23.6 µM (inactive), the GI50 [14] was 34.4 µM (inactive) and the GI50 [15] was > 81.5 µM (inactive). For the same molecule, the GI50 [16] was 7.48 µM (inactive), the GI50 [17] was 51.8 µM (inactive) and the GI50 [18] was 54.5 µM (inactive). The GI50 [19] was 26.4 µM (inactive).

`CC1/C(=N/O)CC(c2ccccc2)N(N=O)C1c1ccccc1` (stereo not drawn) was tested, and the GI50 [1] was 91.4 µM (inactive), the GI50 [2] was > 100 µM (inactive) and the GI50 [3] was > 100 µM (inactive). The GI50 [4] was > 100 µM (inactive), the GI50 [5] was > 100 µM (inactive) and the GI50 [6] was > 100 µM (inactive). The GI50 [7] was > 100 µM (inactive), the GI50 [8] was > 100 µM (inactive) and the GI50 [9] was > 100 µM (inactive). For the same molecule, the GI50 [10] was > 100 µM (inactive), the GI50 [11] was > 100 µM (inactive) and the GI50 [12] was > 100 µM (inactive). For the same molecule, the GI50 [13] was > 100 µM (inactive), the GI50 [14] was > 100 µM (inactive) and the GI50 [15] was > 100 µM (inactive). For the same molecule, the GI50 [16] was > 100 µM (inactive), the GI50 [17] was > 100 µM (inactive) and the GI50 [18] was > 100 µM (inactive). For the same molecule, the GI50 [19] was > 100 µM (inactive).

`COc1c2nc(CCl)n(C)c(=O)c2c(OC)c2c(=O)n(C)c(CCl)nc12` was tested, and the GI50 [1] was 0.719 µM (active), the GI50 [2] was > 100 µM (inactive) and the GI50 [3] was 0.544 µM (active). The GI50 [4] was 1.3 µM (inactive), the GI50 [6] was 1.34 µM (inactive) and the GI50 [7] was 1.6 µM (inactive). The GI50 [8] was 1.84 µM (inactive), the GI50 [9] was 2.11 µM (inactive) and the GI50 [10] was 4.27 µM (inactive). The GI50 [11] was 1.97 µM (inactive), the GI50 [12] was 0.689 µM (active) and the GI50 [13] was 2.07 µM (inactive). For the same molecule, the GI50 [14] was 1.87 µM (inactive), the GI50 [15] was 3.08 µM (inactive) and the GI50 [16] was 0.354 µM (active). The GI50 [17] was 0.904 µM (active) and the GI50 [19] was 1.55 µM (inactive).

`N=C(c1ccc2ccccc2c1)c1ccccc1Cc1ccccc1` was tested, and the GI50 [2] was 27.9 µM (inactive), the GI50 [3] was 84.7 µM (inactive) and the GI50 [4] was 16.4 µM (inactive). The GI50 [5] was 43.3 µM (inactive), the GI50 [6] was 31.8 µM (inactive) and the GI50 [20] was 19.9 µM (inactive). The GI50 [7] was 55 µM (inactive), the GI50 [8] was 32.2 µM (inactive) and the GI50 [9] was 22.7 µM (inactive). For the same molecule, the GI50 [11] was 33.6 µM (inactive), the GI50 [12] was 29.9 µM (inactive) and the GI50 [13] was 5.97 µM (inactive). For the same molecule, the GI50 [14] was 39.6 µM (inactive), the GI50 [15] was 27.7 µM (inactive) and the GI50 [16] was 19.5 µM (inactive). The GI50 [17] was 54.6 µM (inactive), the GI50 [18] was 58.1 µM (inactive) and the GI50 [19] was > 100 µM (inactive).

In the case of `Nc1ccn(C2OC(COC(=O)C34CC5CC(CC(C5)C3)C4)C(O)C2O)c(=O)n1` (stereo not drawn), the GI50 [1] is reported as > 100 µM (inactive), the GI50 [2] is reported as > 100 µM (inactive) and the GI50 [3] is reported as > 100 µM (inactive). The GI50 [4] was > 57.5 µM (inactive), the GI50 [5] was > 100 µM (inactive) and the GI50 [6] was > 69.3 µM (inactive). The GI50 [7] was > 100 µM (inactive), the GI50 [8] was > 100 µM (inactive) and the GI50 [9] was > 100 µM (inactive). The GI50 [10] was > 100 µM (inactive), the GI50 [11] was 0.392 µM (active) and the GI50 [12] was 43.4 µM (inactive). The GI50 [13] was > 100 µM (inactive), the GI50 [14] was 0.973 µM (active) and the GI50 [15] was 0.773 µM (active). The GI50 [16] was 0.101 µM (active), the GI50 [17] was > 100 µM (inactive) and the GI50 [18] was 0.817 µM (active). The GI50 [19] was > 100 µM (inactive).

In the case of `CCN(CC)CCO/N=C1\CC[C@H]2[C@@H]3CC=C4C[C@@H](O)CC[C@]4(C)[C@H]3CC[C@]12C`, the GI50 [1] is reported as 26.4 µM (inactive), the GI50 [3] is reported as 16.8 µM (inactive) and the GI50 [4] is reported as 3.67 µM (inactive). For the same molecule, the GI50 [5] was 16.9 µM (inactive), the GI50 [6] was 16.9 µM (inactive) and the GI50 [20] was 5.31 µM (inactive). For the same molecule, the GI50 [7] was 14.5 µM (inactive), the GI50 [8] was 19.5 µM (inactive) and the GI50 [9] was 17.3 µM (inactive). For the same molecule, the GI50 [10] was 34 µM (inactive), the GI50 [11] was 14.9 µM (inactive) and the GI50 [12] was 7.98 µM (inactive). For the same molecule, the GI50 [13] was 17.5 µM (inactive), the GI50 [14] was 17.6 µM (inactive) and the GI50 [17] was 17.3 µM (inactive). For the same molecule, the GI50 [19] was 19.7 µM (inactive).

With `O=C(O)C(Cc1ccccc1)Cc1ccccc1` the GI50 [1] was > 100 µM (inactive), the GI50 [3] was > 100 µM (inactive) and the GI50 [4] was > 100 µM (inactive). For the same molecule, the GI50 [5] was > 100 µM (inactive), the GI50 [7] was > 100 µM (inactive) and the GI50 [8] was > 100 µM (inactive). For the same molecule, the GI50 [9] was > 100 µM (inactive), the GI50 [10] was 7.48 µM (inactive) and the GI50 [11] was > 100 µM (inactive). For the same molecule, the GI50 [12] was > 100 µM (inactive), the GI50 [13] was > 100 µM (inactive) and the GI50 [14] was > 100 µM (inactive). For the same molecule, the GI50 [15] was > 100 µM (inactive), the GI50 [16] was > 100 µM (inactive) and the GI50 [17] was > 100 µM (inactive). For the same molecule, the GI50 [18] was > 100 µM (inactive) and the GI50 [19] was > 100 µM (inactive).

For `CC(=O)NCCCCN(CCCNC(C)=O)C(=O)OCc1ccccc1`, the GI50 [1] was 19.1 µM (inactive), the GI50 [2] was > 100 µM (inactive) and the GI50 [3] was > 100 µM (inactive). The GI50 [4] was > 100 µM (inactive), the GI50 [5] was > 100 µM (inactive) and the GI50 [6] was > 100 µM (inactive). For the same molecule, the GI50 [7] was > 100 µM (inactive), the GI50 [8] was > 100 µM (inactive) and the GI50 [9] was > 100 µM (inactive). For the same molecule, the GI50 [10] was > 100 µM (inactive), the GI50 [11] was > 100 µM (inactive) and the GI50 [12] was > 100 µM (inactive). The GI50 [13] was > 100 µM (inactive), the GI50 [14] was > 100 µM (inactive) and the GI50 [15] was > 100 µM (inactive). For the same molecule, the GI50 [16] was > 100 µM (inactive), the GI50 [17] was > 100 µM (inactive) and the GI50 [18] was > 100 µM (inactive). The GI50 [19] was > 100 µM (inactive).

`O=P1(C(O)/C=C/c2ccccc2)N(Cc2ccccc2)[C@@H]2CCCC[C@H]2N1Cc1ccccc1` (stereo partly drawn) was tested, and the GI50 [1] was 12 µM (inactive), the GI50 [2] was 2.7 µM (inactive) and the GI50 [3] was 15 µM (inactive). The GI50 [4] was 3.67 µM (inactive), the GI50 [5] was 6.98 µM (inactive) and the GI50 [6] was 3.9 µM (inactive). For the same molecule, the GI50 [7] was 13.1 µM (inactive), the GI50 [8] was 4.42 µM (inactive) and the GI50 [9] was 3.67 µM (inactive). For the same molecule, the GI50 [10] was 3.65 µM (inactive), the GI50 [11] was 3.55 µM (inactive) and the GI50 [12] was 3.74 µM (inactive). For the same molecule, the GI50 [13] was 7.29 µM (inactive), the GI50 [14] was 11.1 µM (inactive) and the GI50 [15] was 4.62 µM (inactive). For the same molecule, the GI50 [16] was 5.19 µM (inactive), the GI50 [17] was 5.94 µM (inactive) and the GI50 [18] was 4.39 µM (inactive). For the same molecule, the GI50 [19] was 10.8 µM (inactive).

In the case of `Cn1c(S)nc2c(Cl)cc(Cl)cc2c1=O`, the GI50 [1] is reported as 55.3 µM (inactive), the GI50 [2] is reported as 63.5 µM (inactive) and the GI50 [3] is reported as > 100 µM (inactive). For the same molecule, the GI50 [5] was > 100 µM (inactive), the GI50 [6] was > 100 µM (inactive) and the GI50 [7] was 67.9 µM (inactive). For the same molecule, the GI50 [8] was > 100 µM (inactive), the GI50 [9] was > 100 µM (inactive) and the GI50 [10] was > 100 µM (inactive). The GI50 [11] was > 100 µM (inactive), the GI50 [13] was > 100 µM (inactive) and the GI50 [14] was > 100 µM (inactive). For the same molecule, the GI50 [15] was > 100 µM (inactive), the GI50 [16] was 24.8 µM (inactive) and the GI50 [17] was > 100 µM (inactive). For the same molecule, the GI50 [18] was > 100 µM (inactive) and the GI50 [19] was > 100 µM (inactive).

In the case of `Nc1nc2cc(Cl)ccc2n1N`, the GI50 [1] is reported as > 100 µM (inactive), the GI50 [3] is reported as 45.5 µM (inactive) and the GI50 [4] is reported as > 100 µM (inactive). For the same molecule, the GI50 [5] was 86.9 µM (inactive), the GI50 [6] was > 100 µM (inactive) and the GI50 [20] was > 100 µM (inactive). For the same molecule, the GI50 [7] was > 100 µM (inactive), the GI50 [8] was > 100 µM (inactive) and the GI50 [9] was > 100 µM (inactive). For the same molecule, the GI50 [10] was > 100 µM (inactive), the GI50 [12] was > 100 µM (inactive) and the GI50 [13] was 67 µM (inactive). For the same molecule, the GI50 [14] was 87.1 µM (inactive), the GI50 [15] was > 100 µM (inactive) and the GI50 [16] was > 100 µM (inactive). For the same molecule, the GI50 [17] was > 100 µM (inactive), the GI50 [18] was > 100 µM (inactive) and the GI50 [19] was > 100 µM (inactive).
